Test results: patent US11731986B2 (Sanford Burnham Prebys Medical Discovery Institute, priority 2017, dated 2023)

Molecular target: T1, human LMPTP-A (Homo sapiens, UniProt P24666)
T1 sequence (P24666 1-158): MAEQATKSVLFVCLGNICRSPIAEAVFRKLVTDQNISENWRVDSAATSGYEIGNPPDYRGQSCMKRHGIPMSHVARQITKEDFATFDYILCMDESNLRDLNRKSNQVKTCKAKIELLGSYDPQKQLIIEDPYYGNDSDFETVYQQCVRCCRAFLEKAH
Assay: Enzyme Assay of Inhibition of LMPTP-A (phosphatase assay, OMFP or pNPP substrate)
Assay type: biochemical
Conditions: Bis-Tris pH 6.0, 37° C.
Procedure: Phosphatase assays were performed in buffer containing 50 mM Bis-Tris, pH 6.0, 1 mM DTT and 0.01% Triton X-100 at 37° C. For assays conducted with 3-O-methylfluorescein phosphate (OMFP) as substrate, fluorescence was monitored continuously at λex=485 and λem=525 nm. For assays conducted with para-nitrophenylphosphate (pNPP) as substrate, the reaction was stopped by addition of 2× reaction volume of 1 M NaOH, and absorbance was measured at 405 nm. IC50 values of compounds of Formula (I), (II), (III), or (IV) were determined from plots of inhibitor concentration versus percentage of enzyme activity. For inhibitor selectivity assays, each PTP was incubated with either 0.4 mM OMFP or 5 mM pNPP in the presence of 40 μM compound or DMSO. […] For the inhibitor reversibility assay, 50 nM human LMPTP-A was pre-incubated with 10 μM of compound of Formula (I), (II), (III), or (IV) or DMSO for 5 min. The enzyme was diluted 100× in phosphatase assay buffer containing 0.4 mM OMFP and fluorescence was measured at the indicated time points.

SMILES	IC50
CN1CCCN(CCNC(=O)/C=C/c2ccc(-c3cc(NCCCN4CCCCC4)c4cnccc4n3)cc2)CC1 [(E)-N-(2-(4-Methyl-1,4-diazepan-1-yl)ethyl)-3-(4-(4-(3-(piperidin-1-yl)propylamino)-1,6-naphthyridin-2-yl)phenyl)acrylamide]	≤ 1000 nM
CCN1CCN(C(=O)c2nc3cc(-c4cc(NCCCN5CCCCC5)c5cnccc5n4)ccc3n2CC)CC1 [(1-ethyl-5-(4-((3-(piperidin-1-yl)propyl)amino)-1,6-naphthyridin-2-yl)-1H-benzo[d]imidazol-2-yl)(4-ethylpiperazin-1-yl)methanone]	≤ 1000 nM
CCN(CC)C(=O)c1ccc(-c2cc(NCCN3CCOCC3)c3cnccc3n2)cc1 [N,N-diethyl-4-(4-(2-morpholinoethylamino)-1,6-naphthyridin-2-yl)benzamide]	1000 to 20000 nM
Cn1c(C(N)=O)cc2nc(-c3cc(NCCCN4CCCCC4)c4cnccc4n3)ccc21 [1-methyl-5-(4-((3-(piperidin-1-yl)propyl)amino)-1,6-naphthyridin-2-yl)-1H-pyrrolo[3,2-b]pyridine-2-carboxamide]	1000 to 20000 nM
CNc1cc(-c2ccc3c(c2)cc(C(=O)NC2CCN(C)CC2)n3C)nc2ccncc12 [1-methyl-5-(4-(methylamino)-1,6-naphthyridin-2-yl)-N-(1-methylpiperidin-4-yl)-1H-indole-2-carboxamide]	1000 to 20000 nM
CN1CCC(NC(=O)c2cc3cc(-c4cc(NCc5ccc(CN6CCCCC6)cc5)c5cnccc5n4)ccc3n2C)CC1 [1-methyl-N-(1-methylpiperidin-4-yl)-5-(4-(4-(piperidin-1-ylmethyl)benzylamino)-1,6-naphthyridin-2-yl)-1H-indole-2-carboxamide]	≤ 1000 nM
CNc1cc(-c2ccc3c(c2)cc(C(N)=O)n3C)nc2ccncc12 [1-methyl-5-(4-(methylamino)-1,6-naphthyridin-2-yl)-1H-indole-2-carboxamide]	1000 to 20000 nM
Cc1cncc2c(NCCCN3CCCCC3)cc(-c3ccc(C(=O)NC4CCN(C)CC4)cc3)nc12 [4-(8-Methyl-4-((3-(piperidin-1-yl)propyl)amino)-1,6-naphthyridin-2-yl)-N-(1-methylpiperidin-4-yl)benzamide]	≥ 20000 nM
CCN1CCC(CNC(=O)CCOc2ccc(-c3cc(NCCCN4CCCCC4)c4cnccc4n3)cc2)CC1 [N-((1-ethylpiperidin-4-yl)methyl)-3-(4-(4-((3-(piperidin-1-yl)propyl)amino)-1,6-naphthyridin-2-yl)phenoxy)propanamide]	≥ 20000 nM
CCNc1cc(-c2ccc3[nH]c(C(=O)NCCCN4CCCCC4)nc3c2)nc2ccncc12 [5-(4-(ethylamino)-1,6-naphthyridin-2-yl)-N-(3-(piperidin-1-yl)propyl)-1H-benzo[d]imidazole-2-carboxamide]	1000 to 20000 nM
CCN1CCN(C(=O)c2nc3cc(-c4cc(NCCCN5CCCCC5)c5cnccc5n4)ccc3[nH]2)CC1 [(4-ethylpiperazin-1-yl)(5-(4-((3-(piperidin-1-yl)propyl)amino)-1,6-naphthyridin-2-yl)-1H-benzo[d]imidazol-2-yl)methanone]	≤ 1000 nM
O=C(NC1CCNCC1)c1ccc(-c2cc(NCCCN3CCCCC3)c3cnccc3n2)c(C(F)(F)F)c1 [4-(4-((3-(piperidin-1-yl)propyl)amino)-1,6-naphthyridin-2-yl)-N-(piperidin-4-yl)-3-(trifluoromethyl)benzamide]	1000 to 20000 nM
CN1CCC(NC(=O)/C=C/c2ccc(-c3cc(NCCCN4CCCCC4)c4cnccc4n3)s2)CC1 [(E)-N-(1-Methylpiperidin-4-yl)-3-(5-(4-(3-(piperidin-1-yl)propylamino)-1,6-naphthyridin-2-yl)thiophen-2-yl)acrylamide]	1000 to 20000 nM
CN1CCN(CCCNC(=O)c2cc3cc(-c4cc(NCCCN5CCCCC5)c5cnccc5n4)ccc3n2C)CC1 [1-methyl-N-(3-(4-methylpiperazin-1-yl)propyl)-5-(4-((3-(piperidin-1-yl)propyl)amino)-1,6-naphthyridin-2-yl)-1H-indole-2-carboxamide]	≤ 1000 nM
O=C(c1nc2ccc(-c3cc(NCCCN4CCCCC4)c4cnccc4n3)cc2s1)N1CCNCC1 [Piperazin-1-yl(6-(4-(3-(piperidin-1-yl)propylamino)-1,6-naphthyridin-2-yl)benzo[d]thiazol-2-yl)methanone]	1000 to 20000 nM
CN1CCC(NC(=O)c2cc3ccc(-c4cc(NCCCN5CCCCC5)c5cnccc5n4)cc3s2)CC1 [N-(1-methylpiperidin-4-yl)-6-(4-(3-(piperidin-1-yl)propylamino)-1,6-naphthyridin-2-yl)benzo[b]thiophene-2-carboxamide]	≤ 1000 nM
CCN(CC)C(=O)c1ccc(-c2cc(NCCN3CCN(C)CC3)c3cnccc3n2)cc1 [N,N-diethyl-4-(4-(2-(4-methylpiperazin-1-yl)ethylamino)-1,6-naphthyridin-2-yl)benzamide]	1000 to 20000 nM

SMILES	IC50
CCN(CC)C(=O)c1ccc(-c2cc(NCCCN3CCOCC3)c3cnccc3n2)cc1 [N,N-Diethyl-4-(4-((3-morpholinopropyl)amino)-1,6-naphthyridin-2-yl)benzamide]	1000 to 20000 nM
CCN(CC)C(=O)c1ccc(-c2cc(NCCCN3CCCCC3)c3cnccc3n2)c(C(F)(F)F)c1 [N,N-diethyl-4-(4-((3-(piperidin-1-yl)propyl)amino)-1,6-naphthyridin-2-yl)-3-(trifluoromethyl)benzamide]	≤ 1000 nM
CN(C)CCNC(=O)c1ccc(-c2cc(NCCCN3CCCCC3)c3cnccc3n2)cc1 [N-(2-(dimethylamino)ethyl)-4-(4-((3-(piperidin-1-yl)propyl)amino)-1,6-naphthyridin-2-yl)benzamide]	≤ 1000 nM
CN1CCC(CNC(=O)COCc2ccc(-c3cc(NCCCN4CCCCC4)c4cnccc4n3)cc2)CC1 [N-((1-methylpiperidin-4-yl)methyl)-2-(4-(4-(3-(piperidin-1-yl)propylamino)-1,6-naphthyridin-2-yl)benzyloxy)acetamide]	≤ 1000 nM
CCN(CC)C(=O)c1ccc(-c2cc(NCCCN3CCCCC3)c3cncc(Br)c3n2)cc1 [4-(8-Bromo-4-((3-(piperidin-1-yl)propyl)amino)-1,6-naphthyridin-2-yl)-N,N-diethylbenzamide]	≥ 20000 nM
CN1CCC(NC(=O)c2cc3cc(-c4cc(OCCCN5CCCCC5)c5cnccc5n4)ccc3n2C)CC1 [1-methyl-N-(1-methylpiperidin-4-yl)-5-(4-(3-(piperidin-1-yl)propoxy)-1,6-naphthyridin-2-yl)-1H-indole-2-carboxamide]	1000 to 20000 nM
O=C(O)/C=C/c1ccc(-c2cc(NCCCN3CCCCC3)c3cnccc3n2)s1 [(E)-3-(5-(4-(3-(Piperidin-1-yl)propylamino)-1,6-naphthyridin-2-yl)thiophen-2-yl)acrylic acid]	1000 to 20000 nM
CO/N=C(\NC1CCN(C)CC1)c1ccc(-c2cc(NCCCN3CCCCC3)c3cnccc3n2)cc1 [(Z)-N′-methoxy-N-(1-methylpiperidin-4-yl)-4-(4-(3-(piperidin-1-yl)propylamino)-1,6-naphthyridin-2-yl)benzimidamide]	≤ 1000 nM
O=C(NCCCN1CCCCC1)c1nc2cc(-c3cc(Nc4ccc(CN5CCCC5)cc4)c4cnccc4n3)ccc2[nH]1 [N-(3-(piperidin-1-yl)propyl)-5-(4-((4-(pyrrolidin-1-ylmethyl)phenyl)amino)-1,6-naphthyridin-2-yl)-1H-benzo[d]imidazole-2-carboxamide]	≤ 1000 nM
O=C(NCCCN1CCCCC1)c1ccc(-c2cc(NC3CCNC3)c3cnccc3n2)cc1 (stereo not drawn) [N-(3-(Piperidin-1-yl)propyl)-4-(4-(pyrrolidin-3-ylamino)-1,6-naphthyridin-2-yl)benzamide]	1000 to 20000 nM
O=C(O)c1ccc(-c2cc(NCCCN3CCCCC3)c3cnccc3n2)cc1 [4-(4-((3-(piperidin-1-yl)propyl)amino)-1,6-naphthyridin-2-yl)benzoic acid]	≤ 1000 nM
CN(C)CCNC(=O)c1nc2cc(-c3cc(NCCCN4CCCCC4)c4cnccc4n3)ccc2[nH]1 [N-(2-(dimethylamino)ethyl)-5-(4-(3-(piperidin-1-yl)propylamino)-1,6-naphthyridin-2-yl)-1H-benzo[d]imidazole-2-carboxamide]	≤ 1000 nM
CN1CCC(NC(=O)c2ccc(-c3cc(NC4CCNC4)c4cnccc4n3)cc2)CC1 (stereo not drawn) [N-(1-Methylpiperidin-4-yl)-4-(4-(pyrrolidin-3-ylamino)-1,6-naphthyridin-2-yl)benzamide]	1000 to 20000 nM
CN1CCC(Nc2cc(-c3ccc4c(c3)cc(C(=O)NCCCN3CCCCC3)n4C)nc3ccncc23)CC1 [1-Methyl-5-(4-((1-methylpiperidin-4-yl)amino)-1,6-naphthyridin-2-yl)-N-(3-(piperidin-1-yl)propyl)-1H-indole-2-carboxamide]	1000 to 20000 nM
CCN(CC)C(=O)c1ccc(-c2cc(NC3CCOCC3)c3cnccc3n2)cc1 [N,N-diethyl-4-(4-(tetrahydro-2H-pyran-4-ylamino)-1,6-naphthyridin-2-yl)benzamide]	1000 to 20000 nM
CN1CCC(NC(=O)c2cc3cc(-c4cc(NC5CCN(C)CC5)c5cnccc5n4)ccc3n2C)CC1 [1-Methyl-N-(1-methylpiperidin-4-yl)-5-(4-((1-methylpiperidin-4-yl)amino)-1,6-naphthyridin-2-yl)-1H-indole-2-carboxamide]	≤ 1000 nM
